Measured values taken from patent publication US9790173B2, “Alpha-7 nicotinic acetylcholine receptor modulators and uses thereof-I” (MERCK SHARP & DOHME CORP., priority 2012, dated 2017).

Columns and labels:
rat α7 nAChRs = target: T1, rat α7 nAChRs (Rattus norvegicus, UniProt Q05941); assay: Automated planar patch clamp (Patchliner) electrophysiology, α7 nAChR PAM activity; type: cell-based; parameters: key to Type I or Type II: I: Type 1 predominately affects the peak current; Type II modulators affect the peak current and also delay the desensitization of the receptor; conditions: for Type I or Type II: modulator type based on the electrophysiology trace; for activation at 3 µM: GH4-C1, 3 μM compound in the presence of acetylcholine, GH4C1 cells expressing rat α7 nAChRs, peak current, read-out: Peak potentiation at 3 μM compound
T1 construct: expressed in transfected cells; host or cells: GH4C1 cells (rat pituitary line) stably expressing α7 nAChR
Method: Tested compounds were prepared by serial dilutions of 10 mM stock solution in DMSO to concentrations of the compound 1000 times higher than its final concentration. The DMSO stock solutions were then diluted 1:100 in the recording buffer bringing DMSO concentration to 1%. These intermediate solutions were further diluted 10 times with buffer to obtain final concentrations and lower DMSO concentration to 0.1%. […]
Compounds of the invention may be evaluated by electrophysiology using a Patchliner® (Nanion Technologies GmbH, Germany), an automated planar patch-clamp platform of medium throughput was used as a first step in electrophysiological assessment of α7 nAChR positive allosteric modulators (PAMs).
Briefly, intracellular (KCl—50 mM, NaCl—10 mM, KF—60 mM, EGTA—20 mM, HEPES—10 mM, pH—7.2, 285 mOsmol) and extracellular (NaCl—140 mM, KCl—4 mM, CaCl2—2 mM, MgCl2—1 mM, HEPES—10 mM, D-Glucose—5 mM, pH—7.4, 298 mOsmol) solutions were automatically pipetted onto NPC-16 chip (medium resistance ˜2.5-2.6 MΩ). Suspension of GH4C1 cells expressing rat α7 nAChRs was introduced in 4 wells of a medium resistance chip and suction was applied to attract cells in the holes. The extracellular solution was subsequently exchanged to high calcium solution (NaCl—80 mM, KCl—3 mM, CaCl2—45 mM, HEPES—10 mM, pH—7.4, 298 mOsmol) followed by gigaohm seal formation and obtaining whole-cell configuration. The rest of protocol was carried out in the high-calcium recording solution. Holding potential was −70 mV throughout the protocol. A control response to 60 or 100 μM of ACh was obtained first. Next, a cell was pre-incubated with compound of interest at 3 μM for ˜30 s after which the compound was co-applied with acetylcholine.
Amplitude of the responses was measured in HEKA Patchmaster software (HEKA Elektronik, Germany) and percentage of potentiation calculated. Recording was repeated […] a minimum of two replicates had been obtained per compound.
Compounds shown in Table 1 were evaluated by automated planar patch clamp on the Patchliner® as described in Example P2.1. […] The compounds are designated either as Type I or Type II modulators based on the electrophysiology trace. Type 1 predominately affects the peak current. Type II modulators affect the peak current and also delay the desensitization of the receptor.

T1 sequence (Q05941 23-502): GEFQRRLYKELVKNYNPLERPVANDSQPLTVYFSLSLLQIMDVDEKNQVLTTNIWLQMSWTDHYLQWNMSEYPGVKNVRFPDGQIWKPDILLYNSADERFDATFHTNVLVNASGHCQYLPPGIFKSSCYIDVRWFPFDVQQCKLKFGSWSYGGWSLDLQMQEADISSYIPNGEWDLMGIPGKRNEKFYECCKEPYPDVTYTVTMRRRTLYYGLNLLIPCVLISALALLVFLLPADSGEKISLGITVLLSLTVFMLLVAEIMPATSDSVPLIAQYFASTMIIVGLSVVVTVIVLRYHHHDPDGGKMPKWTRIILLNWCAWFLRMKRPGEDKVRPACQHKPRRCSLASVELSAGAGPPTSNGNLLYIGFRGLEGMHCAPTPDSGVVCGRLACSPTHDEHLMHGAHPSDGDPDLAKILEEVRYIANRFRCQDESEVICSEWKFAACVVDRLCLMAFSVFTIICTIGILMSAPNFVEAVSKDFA

Compound | Type I or Type II (rat α7 nAChRs) | melting point [°C] | activation at 3 µM (rat α7 nAChRs) [%]
COc1ccc(NC[C@@H]2[C@@H](c3ccc(S(N)(=O)=O)cc3)C23CCCC3)c(OC)n1 [Example 9, ±trans 4-(2-{[(2,6-dimethoxypyridin-3-yl)amino]methyl}spiro[2.4]hept-1-yl)benzenesulfonamide] | II | 56 to 58 | 
Cc1ccc(Cl)cc1NC[C@@H]1[C@@H](c2ccc(S(N)(=O)=O)cc2)C1(C)C [Example 22, ±trans 4-[3-{[(5-chloro-2-methylphenyl)amino]methyl}-2,2-dimethylcyclopropyl]benzenesulfonamide] | II | 60 to 62 | 
COc1ccc(F)cc1NC[C@@H]1[C@@H](c2ccc(S(N)(=O)=O)cc2)C1(C)C [Example 23, ±trans 4-[3-{[(5-fluoro-2-methoxyphenyl)amino]methyl}-2,2-dimethylcyclopropyl]benzenesulfonamide] | II | 164 to 166 | 
CC1(C)[C@H](CNc2cccc(Cl)c2)[C@H]1c1ccc(S(N)(=O)=O)cc1 [Example 24, ±trans 4-[3-{[(3-chlorophenyl)amino]methyl}-2,2-dimethylcyclopropyl]benzenesulfonamide] | II | 120 to 122 | 901
COc1ccccc1NC[C@@H]1[C@@H](c2ccc(S(N)(=O)=O)cc2)C1(C)C [Example 25, ±trans 4-[3-{[(2-methoxyphenyl)amino]methyl}-2,2-dimethylcyclopropyl]benzenesulfonamide] | II |  | 
CC1(C)[C@H](CNc2cccc(N3CCOCC3)c2)[C@H]1c1ccc(S(N)(=O)=O)cc1 [Example 26, ±trans 4-[2,2-dimethyl-3-({[3-(morpholin-4-yl)phenyl]amino}methyl)cyclopropyl]benzenesulfonamide] | II |  | 455
CCOc1ccc(Cl)cc1NC[C@@H]1[C@@H](c2ccc(S(N)(=O)=O)cc2)C1(C)C [Example 27, ±trans 4-[3-{[(5-chloro-2-ethoxyphenyl)amino]methyl}-2,2-dimethylcyclopropyl]benzenesulfonamide] | I | 122 to 124 | 
COc1ccc(C(F)(F)F)cc1NC[C@@H]1[C@@H](c2ccc(S(N)(=O)=O)cc2)C1(C)C [Example 28, ±trans 4-[3-({[2-methoxy-5-(trifluoromethyl)phenyl]amino}methyl)-2,2-dimethylcyclopropyl]benzenesulfonamide] | II | 68 to 70 | 
Cc1ccc(F)cc1NC[C@@H]1[C@@H](c2ccc(S(N)(=O)=O)cc2)C1(C)C [Example 29, 4-[(1R,3R)-3-{[(5-fluoro-2-methylphenyl)amino]methyl}-2,2-dimethylcyclopropyl]benzenesulfonamide] | I |  | 456
Cc1ccc(F)cc1NC[C@H]1[C@H](c2ccc(S(N)(=O)=O)cc2)C1(C)C [Example 31, 4-[(1S,3S)-3-{[(5-fluoro-2-methylphenyl)amino]methyl}-2,2-dimethylcyclopropyl]benzenesulfonamide] | II |  | 
Cc1cc(F)c(F)cc1NC[C@H]1[C@H](c2ccc(S(N)(=O)=O)cc2)C1(C)C [Example 32, 4-[(1S,3S)-3-{[(4,5-difluoro-2-methylphenyl)amino]methyl}-2,2-dimethylcyclopropyl]benzenesulfonamide] | II |  | 
Cc1ncccc1NC[C@@H]1[C@@H](c2ccc(S(N)(=O)=O)cc2)C1(C)C [Example 36, ±trans 4-[2,2-dimethyl-3-{[(2-methylpyridin-3-yl)amino]methyl}cyclopropyl]benzenesulfonamide] | II | 174 to 176 | 125
Cc1cc(F)c(Cl)cc1NC[C@@H]1[C@@H](c2ccc(S(N)(=O)=O)cc2)C1(C)C [Example 37, ±trans 4-[3-{[(3-chloro-4-fluoro-2-methylphenyl)amino]methyl}-2,2-dimethylcyclopropyl]benzenesulfonamide] | II | 164 to 166 | 
CCc1ccc(F)cc1NC[C@H]1[C@H](c2ccc(S(N)(=O)=O)cc2)C1(C)C [Example 39, ±trans 4-[3-{[(2-ethyl-5-fluorophenyl)amino]methyl}-2,2-dimethylcyclopropyl]benzenesulfonamide] | II |  | 
CC1(C)[C@@H](CNc2cc(OC(F)(F)F)ccc2F)[C@@H]1c1ccc(S(N)(=O)=O)cc1 [Example 40, ±trans 4-[3-({[2-fluoro-5-(trifluoromethoxy)phenyl]amino}methyl)-2,2-dimethylcyclopropyl]benzenesulfonamide] | II |  | 309
CC1(C)[C@@H](CNc2cc(F)ccc2OC(F)(F)F)[C@@H]1c1ccc(S(N)(=O)=O)cc1 [Example 41, ±trans 4-[3-({[5-fluoro-2-(trifluoromethoxy)phenyl]amino}methyl)-2,2-dimethylcyclopropyl]benzenesulfonamide] | I |  | 
COc1ncccc1NC[C@@H]1[C@@H](c2ccc(S(N)(=O)=O)cc2)C1(C)C [Example 42, ±trans 4-(3-{[(2-methoxypyridin-3-yl)amino]methyl}-2,2-dimethylcyclopropyl)benzenesulfonamide] | II | 98 to 100 | 
COc1ccc(Cl)cc1NC[C@@H]1[C@@H](c2ccc(-c3ccccc3O)cc2)C1(C)C [Example 43, ±trans 4′-[3-{[(5-chloro-2-methoxyphenyl)amino]methyl}-2,2-dimethylcyclopropyl]biphenyl-2-ol] | I |  | 100
CCOc1ccccc1NC[C@@H]1[C@@H](c2ccc(S(N)(=O)=O)cc2)C1(C)C [Example 44, ±trans 4-[3-{[(2-ethoxyphenyl)amino]methyl}-2,2-dimethylcyclopropyl]benzenesulfonamide] | I |  | 
COc1ccc(Cl)cc1NC[C@@H]1[C@@H](c2ccc(S(=O)(=O)NO)cc2)C1(C)C [Example 55, ±trans 4-[3-{[(5-chloro-2-methoxyphenyl)amino]methyl}-2,2-dimethylcyclopropyl]-N-hydroxybenzenesulfonamide] | I |  | 724
COc1ccc(Cl)cc1NC[C@@H]1[C@@H](c2ccc(S(=O)(=O)NN)cc2)C1(C)C [Example 56, ±trans 4-[3-{[(5-chloro-2-methoxyphenyl)amino]methyl}-2,2-dimethylcyclopropyl]benzenesulfonohydrazide] | I |  | 131
